Laboratory results reported in patent US8912139B2, “Peptide compositions and methods for treating lung injury, asthma, anaphylaxis, angioedema, systemic vascular permeability syndromes, and nasal congestion” (The Board of Trustees of the University of Illinois, priority 2011, dated 2014).
“Also recorded” adds a separate entry of the source. Ends that are not written are not given here. Peptide text beside a SMILES is read from it. * marks the point of attachment. Myristoyl = CCCCCCCCCCCCCC(=O)*

Key:
LPS-induced sepsis = test: Survival in LPS-induced murine model of sepsis; format: in vivo, mice; conditions: for survival rate, LPS LD90, pre-treatment with Myr-EBIN: Myr-EBIN 1 microM/kg i.v. 30 min prior, 1 hr and 24 hrs after LPS
Description: (n=11-15 mice/group, p<0.001 AP-IP3R3 vs control treatment (AP control) by ANOVA. Mice were anesthetized prior to retro-orbital i.v. injection of IP3R3 with a mixture of ketamine, 10 mg/ml; xylazine, 0.25 mg/ml and acepromazine, 0.25 mg/ml.
CD-1 mice treated with indicated doses of IP3R3 peptide were i.p. injected with LPS at LD80 dose (50 mg/kg LPS) and were monitored for 5 days. Survival rate (%) was plotted vs. peptide dose in logarithm scale. The sigmoidal dose-response curve was fitted to the data points. n=10 mice/group. Mice were anesthetized prior to retro-orbital injection of peptide with 2.5% isoflurane in room air in an anesthesia induction chamber. Anesthesia was maintained during i.v. injection using a specially designed rodent facemask with a coaxial tube (Harvard Apparatus, AH 72-3026).
Male CD1 mice were challenged by intraperitoneal (i.p.) injection of LD90 doses of LPS. The experimental and control groups received retro-orbital, intravenous (i.v.) injection of EBIN attached to the C-terminus of cell permeant antennapedia peptide (AP) or AP alone at a concentration of 1 microM/kg. Mice were injected tree times, 30 minutes prior to and 1 hr and 24 hrs after LPS administration. Mice were anesthetized prior to retro-orbital injection with a mixture of ketamine (10 mg/ml), xylazine (0.25 mg/ml), and acepromazine (0.25 mg/ml).
FIG. 19 compares the effect of pre- and post treatment with EBIN (SEQ ID NO: 3) on lethality from LPS-induced sepsis. […] Male CD1 mice were challenged by intraperitoneal (i.p.) injection of LD90 doses of LPS. The experimental and control groups received tail vein (i.v.) injection of Myr-EBIN 30 min prior (pre-treatment) or 30 min after (post-treatment) LPS or Myr-control loss-of-binding peptide at a concentration of 1 microM/kg. Pre-treatment group, mice were injected tree times, 30 minutes prior to and 1 hr and 24 hrs after LPS administration; treatment group, mice were injected two times, 30 minutes and 24 hrs after LPS administration. Mice were anesthetized prior to retro-orbital injection with a mixture of ketamine (10 mg/ml), xylazine (0.25 mg/ml), and acepromazine (0.25 mg/ml).
The pharmacological effect of IP3R3 peptide was tested in LPS-induced murine model of sepsis. Male CD1 mice were challenged by intraperitoneal injection (i.p.) of LPS (30 mg/kg body weight) and infiltration of neutrophils in lung, a measure of lung inflammation was determined. Lungs were perfused with PBS, weighed, frozen and used for measuring lung myeloperoxidase (MPO) activity, signature of activated neutrophils. […] Furthermore, it was determined whether IP3R3 peptide protects from polymicrobial sepsis induced by cecal ligation and puncture (CLP). CLP causes lethal peritonitis that is accompanied by acute lung injury (ALI). It is well-excepted and clinically relevant method in experimental rodents.
The dose-response of IP3R3 peptide was further tested in LPS-induced murine model of sepsis. Male CD1 mice were challenged by i.p. injection of LPS at LD80 dose. Mice received a retro-orbital i.v. injection of IP3R3 peptide at doses 0.01, 0.033, 0.1, 0.33, 1.0, 3.3 and 10 μM per kg of the body weight. Mice were injected with IP3R3 peptide three times, 30 minutes prior to, and 1 and 24 hrs after LPS administration. A percent of survived animals in each group was plotted as a function of IP3R3 dose. […] The ED50 (effective dose, 50%) as 80 nM/kg was calculated using a three-parameter logistic equation: y=min+([…])/1+10^LogED50-x Where min and max are minimum and maximum of response.
The effect of EBIN on mortality rate from LPS-induced sepsis was determined. Mice received i.v. retro-orbital injection of AP-EBIN or AP control peptide, 30 minutes prior to and 1 hr after LPS administration at LD90 dose. […] In this experiment, Myr-EBIN was injected in tail vein 30 min and 24 hrs after LPS challenged. […] It is concluded that administration of EBIN prior to systemic inflammation has much higher beneficial outcome.

IP3R = conditions: background statement, MT destabilizing or stabilizing agents; cited from earlier work
lung injury = conditions: background statement; cited from earlier work
HMVECs = test: Thrombin-induced Ca2+ release from stores in HMVECs (Fura 2-AM 340/380 ratio); format: cell-based; conditions: 5 μg/ml taxol for 20 min prior to thrombin stimulation
Description: A. HMVECs pre-treated with AP-attached IP3R3 peptide or control (AP) peptide were loaded with Fura 2-AM and 340/380 ratio was calculated after stimulation of cells with thrombin (50 nM) in the absence and in the presence of extracellular Ca^2+. Arrow, time of thrombin addition. […] The increase is normalized to control non-treated cells from the same experiment (n=4).
The effects of IP3R peptide and taxol were compared in regulating Ca^2+ release.

HPAECs [1] = test: Agonist-induced intracellular calcium transient in HPAEC monolayers (Fura-2 340/380); format: cell-based, Human; conditions: 1 μM Myr-peptide, 50 nM thrombin or 90 μM histamine
Description: [Ca2+]i transient after stimulation of HPAEC monolayers with 50 nM thrombin (A) or 90 μM histamine (B). Mean value; n=20 cells. Arrow, time of stimulation.
(§1) To determine the inhibitory properties of EBIN in cells, Human Pulmonary Aorta Endothelial Cell (HPAECs) monolayers pretreated with EBIN or with a control peptide at the concentration of 1 μM were challenged with thrombin. The interaction between EB3 and IP3R3 receptor was analyzed using a Western Blot analysis. […] EBIN but not a control peptide mitigated agonist-induced increase in intracellular calcium. [Ca2-F]i transient after stimulation of HPAEC monolayers with pro-inflammatory cytokines.

HPAECs [2] = test: NO production in HPAECs (porphyrinic NO electrodes); format: cell-based, Human; conditions: first 20 min
Description: HPAECs were pretreated with control peptide (loss-of-activity) or Myr-EBIN and basal (A, in response to addition of L-arginin) and agonist-induced (B, thrombin and histamine) NO production was measured for the first 20 min stimulation.
(§2) The activity of nitric oxide synthase 3(eNOS), an endothelial-specific enzyme that produces NO, is regulated by calcium signaling, particularly, through eNOS interaction with calmodulin, and is a known cause of hyperpermeability of endothelial barrier during inflammation. Because EBIN inhibits calcium signaling it was postulated that the barrier-protective effect of EBIN, in part, is due to inhibition of eNOS. Therefore, the effect of EBIN on basal and agonist-induced production of NO was measured. NO formation was measured using porphyrinic NO electrodes coupled to a FAS1 femtostat and a personal computer with electrochemical software (Gamry Instruments). The electrode current, which is proportional to NO concentration, was measured as a function of time.

[3] = test system: histamine-induced vasodilation; test: Awake blood pressure measurement in mice, histamine-induced vasodilation; format: in vivo; conditions: AP-EBIN 1 μM/kg i.v.
Description: Awake Blood Pressure Measurement in Mice-Mice were anesthetized and surgically prepared for placement of arterial (carotid) and venous (external jugular) catheters. One hour after surgery the blood pressure was monitored directly using a pressure transducer. Subsequent intravenous (i.v.) injections of AP-EBIN peptide (1 μM/kg body weight; green) or control AP peptide (red) and histamine (10 mg/kg body weight) were performed through jugular vein catheter; the arrow indicates the time of injection.
as §2

EB3/IP3R3 interaction = target: T1, EB3/IP3R3 interaction (Homo sapiens, UniProt Q9UPY8); test: EB3-IP3R3 interaction by immunoprecipitation/Western blot in HPAECs challenged with thrombin; format: cell-based; conditions: HPAECs pretreated with 1 μM AP-EBIN; 50 nM thrombin
T1 construct: HPAECs pretreated with 1 μM AP-EBIN or control peptide (AP) were challenged with 50 nM thrombin; endogenous in cells; host or cells: HPAEC (human pulmonary aorta endothelial cells)
T1 sequence (Q9UPY8 whole entry): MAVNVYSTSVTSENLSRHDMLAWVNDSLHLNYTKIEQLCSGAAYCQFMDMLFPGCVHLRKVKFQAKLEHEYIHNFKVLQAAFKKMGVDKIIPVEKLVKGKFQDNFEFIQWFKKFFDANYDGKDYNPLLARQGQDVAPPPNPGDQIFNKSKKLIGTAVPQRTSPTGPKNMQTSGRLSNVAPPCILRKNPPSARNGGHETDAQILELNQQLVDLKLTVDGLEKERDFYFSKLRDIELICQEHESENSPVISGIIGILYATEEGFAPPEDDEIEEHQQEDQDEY
Description: HPAECs pretreated with 1 μM AP-EBIN or control peptide (AP) were challenged with 50 nM thrombin. The interaction between EB3 and IP3R3 was analyzed at different time-points after thrombin stimulation. EB3 was immune-precipitated with specific Abs and resulted precipitates were probed for EB3 and IP3R3.
as §1

[4] = test system: IgE-mediated anaphylactic reaction; test: Subcutaneous vascular leak (Evans Blue) following IgE-mediated anaphylactic reaction; format: in vivo; conditions: mice, intradermal IgE-HSA, HSA challenge 24 hr later; Myr-peptide 1 μM/kg i.v. 30 min prior to HSA
Description: Mice received intradermal injection of IgE-HSA in the ear (A) and back (B) and 24 hr later, iv injection of Evans Blue and HSA (1-3) or saline (4-5). Groups 1 and 4 received saline, 2—control peptide (loss-of-binding) and 3 and 5—Myr-EBIN iv injection (1 μM/kg) 30 min prior to HSA. […] C. […] Evans Blue was extracted from ear tissue and Evans Blue concentration was measured at A=620 nm and normalized to the tissue weight. *, p<0.05, n=6 mice/group.
Airway microvascular hyperpermeability, the result of elevated plasma VEGF, is one of the critical factors contributing to abnormal airway function in patients with classic asthma and its cough variant. Because acute allergic asthmatic response is mainly due to IgE-mediated hypersensitivity, we also determined whether EBIN protects from subcutaneous vascular leak following an IgE-mediated anaphylactic reaction. […] These date indicate that EBIN might be effectively used to improve the lung function and overall health of patients with chronic or acute forms of allergic asthma, and curtail the asthmatic inflammatory response.

[5] = 50 mg/kg LPS, vs loss-of-binding peptide

## CC[C@H](C)[C@H](NC(=O)[C@H](C)NC(=O)[C@@H](NC(=O)[C@@H]1CCCN1C(=O)[C@@H](NC(=O)[C@H](CCC(=O)O)NC(=O)[C@@H](NC(=O)[C@H](Cc1c[nH]c2ccccc12)NC(=O)[C@H](CC(C)C)NC(=O)[C@H](CCCNC(=N)N)NC(=O)[C@H](C)NC(=O)[C@H](Cc1ccccc1)NC(=O)[C@@H](N)CCCCN)[C@@H](C)O)[C@@H](C)CC)[C@@H](C)O)C(=O)N[C@H](C(=O)O)[C@@H](C)O [IP3R3 peptide, KFARLWTEIPTAIT] (H-KFARLWTEIPTAIT-OH)
LPS-induced sepsis; 30 mg/kg LPS i.p., peptide i.v. 30 minutes prior to and 1 hr after LPS, vs AP control
  survival / mortality, LD50 LPS challenge: marked improvement in survival rate; also recorded: mortality reduction
LPS-induced sepsis; mice, 0.01 to 10 μM per kg i.v., three injections
  toxicity within the dose range: low toxicity

## CC(=O)O[C@H]1C(=O)[C@@]2(C)[C@H]([C@H](OC(=O)c3ccccc3)[C@]3(O)C[C@H](OC(=O)[C@H](O)[C@@H](NC(=O)c4ccccc4)c4ccccc4)C(C)=C1C3(C)C)[C@]1(OC(C)=O)CO[C@@H]1C[C@@H]2O [taxol]
IP3R
  IP3-gated release of Ca2+: inhibits IP3-gated release of Ca2+
Lung injury
  lung injury in mice models: attenuate the lung injury
HMVECs
  release of Ca2+ from ER in response to thrombin: inhibits release of Ca^2+ from ER to the same extent as IP3R3 peptide

## Myr-EBIN: myristoylated EBIN (SEQ ID NO: 3) (Myristoyl-FTEIPTI)
HPAECs [1]
  agonist-induced increase in intracellular calcium ([Ca2+]i transient): mitigates agonist-induced increase in intracellular calcium
LPS-induced sepsis; [5]
  survival rate, LPS LD90, pre-treatment with Myr-EBIN: significant increase

## COc1cc2c(c(OC)c1OC)-c1ccc(OC)c(=O)cc1[C@@H](NC(C)=O)CC2 [colchicine]
IP3R
  IP3-gated release of Ca2+: inhibits IP3-gated release of Ca2+

## FTEIPTI (EB binding peptide) [EBIN]
HPAECs [1]
  agonist-induced increase in intracellular calcium ([Ca2+]i transient): significantly inhibited the intracellular calcium flux
HPAECs [2]; response to L-arginin
  basal NO production: no effect; also recorded: did not affect basal NO level
HPAECs [2]; thrombin and histamine
  agonist-induced NO production: significantly attenuated agonist-induced NO production
[3]
  baseline (systolic) blood pressure: no effect on baseline blood pressure
[3]; histamine 10 mg/kg i.v.
  histamine-induced blood pressure drop / vasodilation: significantly inhibited histamine-induced vasodilation; also recorded: prevented blood pressure drop in response to histamine
EB3/IP3R3 interaction
  interaction between EB3 and IP3R3, basal and after thrombin: attenuated basal and thrombin-induced interaction between EB3 and IP3R3; also recorded: markedly reduced
[4]
  subcutaneous vascular leak (Evans Blue) in ear and back: significantly attenuates subcutaneous vascular leak; also recorded: significantly attenuated
LPS-induced sepsis; [5]
  survival rate, LPS LD90, pre-treatment with Myr-EBIN: reduced mortality
LPS-induced sepsis; 50 mg/kg LPS, Myr-EBIN 1 microM/kg tail vein 30 min and 24 hrs after LPS, vs loss-of-binding peptide
  survival rate, LPS LD90, post-treatment with Myr-EBIN: insignificant improvement in survival rate; also recorded: some but not significant improvement of the survival
LPS-induced sepsis; CD1 mice, 50 mg/kg LPS i.p., AP-EBIN 1 microM/kg retro-orbital i.v. starting 30 minutes prior to LPS, 120-hr, vs AP, 50 mg/kg
  survival / mortality, LPS LD90, AP-EBIN: marked improvement in survival rate; also recorded: reduced mortality

## COC(=O)Nc1nc2ccc(C(=O)c3cccs3)cc2[nH]1 [nocodazole]
IP3R
  IP3-gated release of Ca2+: inhibits IP3-gated release of Ca2+
